Laboratory results as given in paper PMC4804318 (Pharmacology Research & Perspectives, 2016).

Target: T1, human AT1R (Homo sapiens, UniProt P30556)
T1 sequence (P30556 1-359): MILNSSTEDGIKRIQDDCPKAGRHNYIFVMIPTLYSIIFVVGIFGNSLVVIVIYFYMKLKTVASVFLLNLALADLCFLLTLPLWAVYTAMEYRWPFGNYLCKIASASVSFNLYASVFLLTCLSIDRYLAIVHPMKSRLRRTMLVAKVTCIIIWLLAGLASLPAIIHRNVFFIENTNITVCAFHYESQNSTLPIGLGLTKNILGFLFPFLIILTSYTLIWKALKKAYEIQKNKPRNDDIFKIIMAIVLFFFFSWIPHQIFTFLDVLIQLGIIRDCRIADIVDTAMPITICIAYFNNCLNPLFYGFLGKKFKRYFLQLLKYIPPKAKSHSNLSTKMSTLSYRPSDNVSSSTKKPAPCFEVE
Assay type: cell-based
Settings: CellKey assay, Fig. 1C

For [Sar^1, Cys^5, Leu^8]‐AngII, the “potency at β‐arrestin stimulation relative to AngII and SII” value was “less potent than AngII but more potent than SII”.
